Test results: patent US20210196714A1, “COMPOSITIONS AND METHODS FOR TREATING DISORDERS CHARACTERIZED WITH ABERRANT RAS/MAPK SIGNALING” (Duke University, priority 2018, published 2021)
Entries after “also recorded” stand apart in the source; their conditions may differ.

What was measured:
rap1-CRISPR embryos = assay: Jaw defect (MK-CH distance) in rap1-CRISPR embryos; assay type: in vivo, zebrafish; settings: rap1 F0 CRISPR mutant, 100 nM, 5 dpf
Method: (§1) FIG. 4: Compound 8 ameliorates the CE and jaw defects caused by loss of rap/and kdm6a. (a) gRNA targeting both zebrafish rap1a and rap1b were injected into embryos at the 1-cell stage with Cas9 protein. Larvae were incubated with compound 8 (100 nM) at the 8-cell stage and scored for micrognathia. 5 dpf larvae were stained with Alcian blue to assess the layout of the jaw cartilage. In comparison to control embryos (top), rap1-CRISPR embryos have smaller jaws. […] (b) Quantitative measurement of the distance between MK and CH cartilages. (c) Larvae were scored for CE (n>30 for each concentration). (d) 5 dpf embryos were stained with Alcian blue to assess the layout of jaw cartilage. […] (e) Quantitative measurement of the distance between MK and CH cartilages. *p<0.05; ***p<0.001. […]
(§2) For convergence and extension (CE) phenotyping, embryos were scored as described (see, Leitch, C. C. et al. Nat Genet 40, 443-8 (2008)) at the 8-10 somite stage, and images were captured using an AZ100 microscope and NIS Elements software (Nikon). […] The distance between Meckel's (MK) and ceratohyal (CH) cartilages was measured on ventral bright field images with Image J (NIH). […] Fluorescence signal on embryo heads was imaged with the Nikon AZ100 microscope and DS-Qi1MC digital camera using […] Z-stacks to generate extended depth of focus images. Cell numbers were quantified using the ImageJ ICTN plugin (NIH). […]

[1] = system: zebrafish kmt2d morphants; assay: Jaw defect (MK-CH cartilage distance, Alcian blue) in kmt2d morphants; assay type: in vivo; settings: for jaw defect, distance between MK and CH cartilages: 100 nM, 5 dpf
Method: To test the first criterion, the CE rescue paradigm was repeated four times by two different investigators, each using independent zebrafish adult stocks.
Morpholinos (MO) were obtained from Gene Tools (Gene Tools, LLC, Philomath, Oreg., USA) and have been described previously (see, Bogershausen, N. et al. J Clin Invest 125, 3585-99 (2015)); kmt2d-MO: 5′-[…]-3′(SEQ ID NO: 1) (5 ng); kdm6a-MO: 5′-[…] (SEQ ID NO: 2) (10 ng). kmt2d-MO and kdm6a-MO was injected into wild type (WT) Ekkwill (EK) zebrafish embryos obtained from natural matings at the 1-4 cell stage. CRISPR target sequences (rap1a: 5′-[…]-3′ (SEQ ID NO: 3) [120 pg], rap1b: 5′-[…]-3′ (SEQ ID NO: 4) [120 pg] (see, Bogershausen, N. et al. J Clin Invest 125, 3585-99 (2015)), and kmt2d: 5′-[…] (SEQ ID NO: 5) [50 pg]) were identified by crispr.mit.edu and cloned into pT7-gRNA (Addgene, Cambridge, USA) following the protocol described in http://www.addgene.org/crispr/Chen/. Guide (g)RNAs were synthesized using the T7 MEGAshortscript kit (ThermoFisher Scientific). An injection solution of gRNA plus 100 pg Cas9 protein (PNA Bio) was injected into wild type Ekkwill (EK) zebrafish embryos obtained from natural matings at the 1-cell stage. Embryos were treated with compound at the 8-cell stage. All compounds were dissolved in dimethyl sulfoxide (DMSO; 10 mM), and subsequently diluted with water to 100 μM. Using egg water, we then diluted the 100 μM solution to the concentration specific to each experiment in egg water. Embryos were incubated at 28.5° C. and egg water containing compound was replaced daily until phenotyping, mass spectrometry, or immunoblotting analysis.
For convergence and extension (CE) phenotyping, embryos were scored as described (see, Leitch, C. C. et al. Nat Genet 40, 443-8 (2008)) at the 8-10 somite stage, and images were captured using an AZ100 microscope and NIS Elements software (Nikon). To assess mandibular phenotypes, Alcian blue staining was used to stain cartilage structures in 5 dpf larvae as described (see, Chassaing, N. et al. J Med Genet 49, 373-9 (2012)). Stained larvae were imaged in glycerol using an SMZ745T stereomicroscope (Nikon). The distance between Meckel's (MK) and ceratohyal (CH) cartilages was measured on ventral bright field images with Image J (NIH). For brain cell proliferation assays, injected embryos were fixed in Dent's solution at 2 dpf. […] Fluorescence signal on embryo heads was imaged with the Nikon AZ100 microscope and DS-Qi1MC digital camera using […] Z-stacks to generate extended depth of focus images. Cell numbers were quantified using the ImageJ ICTN plugin (NIH). […]

kdm6a-MO embryos = assay: Jaw defect (MK-CH distance) in kdm6a-MO embryos; assay type: in vivo, zebrafish; settings: kdm6a morphant, 5 dpf
Method: as §1, §2

SMILES	jaw length / MK-CH distance (rap1-CRISPR embryos)	jaw defect, distance between MK and CH cartilages [1]	jaw length / MK-CH distance (kdm6a-MO embryos)	jaw defect, distance between MK and CH cartilages ([1]; listed as dmDf)	jaw rescue at dosages beyond 100 nM ([1]; dose response, above 100 nM up to 1 μM)
CC[C@@H](CO)Nc1ncc(C)c(-c2c[nH]c(C(=O)N[C@H](CO)c3cccc(Cl)c3)c2)n1 [Compound 2, N-((S)-1-(3-chlorophenyl)-2-hydroxyethyl)-4-(2-(((S)-1-hydroxybutan-2-yl)amino)-5-methylpyrimidin-4-yl)-1H-pyrrole-2-carboxamide]	can be ameliorated; also recorded: restored significantly the jaw length of morphants and mutants to nearly wild type levels	ameliorates this defect; also recorded: rescue significantly	restored significantly the jaw length of morphants and mutants to nearly wild type levels		
CC(C)c1nc(-c2cccc(NS(=O)(=O)c3c(F)cccc3F)c2F)c(-c2ccnc(N)n2)s1 [Compound 8, desmethyl-Dabrafenib]	can be ameliorated; also recorded: restored significantly the jaw length of morphants and mutants to nearly wild type levels	ameliorates this defect; also recorded: rescue significantly	can be ameliorated; also recorded: restored significantly the jaw length of morphants and mutants to nearly wild type levels	able to rescue the jaw layout	higher dosages did not improve efficacy any further
